In US4169944A, “Cholesterol biosynthesis inhibitors” (University Patents, Inc., priority 1977, dated 1979):
“And” between values parts separate entries of the source, which are not always exact repeats. Identical values can stand only once. Like-named read-outs stand apart in the source and are kept apart here. Blank lines part the entries; values can stand above or below the molecule they belong to.

What was measured:
[1] = biological target: T1, HMG-CoA reductase (Rattus norvegicus, UniProt P51639); assay: HMG-CoA reductase activity in crude soluble extract of rat liver microsomes; format: biochemical; settings: for HMG-CoA reductase activity: 1.98 without inhibitor
T1 construct: from tissue; host or cells: rat liver microsomes, crude soluble extract
T1 sequence (P51639 1-887): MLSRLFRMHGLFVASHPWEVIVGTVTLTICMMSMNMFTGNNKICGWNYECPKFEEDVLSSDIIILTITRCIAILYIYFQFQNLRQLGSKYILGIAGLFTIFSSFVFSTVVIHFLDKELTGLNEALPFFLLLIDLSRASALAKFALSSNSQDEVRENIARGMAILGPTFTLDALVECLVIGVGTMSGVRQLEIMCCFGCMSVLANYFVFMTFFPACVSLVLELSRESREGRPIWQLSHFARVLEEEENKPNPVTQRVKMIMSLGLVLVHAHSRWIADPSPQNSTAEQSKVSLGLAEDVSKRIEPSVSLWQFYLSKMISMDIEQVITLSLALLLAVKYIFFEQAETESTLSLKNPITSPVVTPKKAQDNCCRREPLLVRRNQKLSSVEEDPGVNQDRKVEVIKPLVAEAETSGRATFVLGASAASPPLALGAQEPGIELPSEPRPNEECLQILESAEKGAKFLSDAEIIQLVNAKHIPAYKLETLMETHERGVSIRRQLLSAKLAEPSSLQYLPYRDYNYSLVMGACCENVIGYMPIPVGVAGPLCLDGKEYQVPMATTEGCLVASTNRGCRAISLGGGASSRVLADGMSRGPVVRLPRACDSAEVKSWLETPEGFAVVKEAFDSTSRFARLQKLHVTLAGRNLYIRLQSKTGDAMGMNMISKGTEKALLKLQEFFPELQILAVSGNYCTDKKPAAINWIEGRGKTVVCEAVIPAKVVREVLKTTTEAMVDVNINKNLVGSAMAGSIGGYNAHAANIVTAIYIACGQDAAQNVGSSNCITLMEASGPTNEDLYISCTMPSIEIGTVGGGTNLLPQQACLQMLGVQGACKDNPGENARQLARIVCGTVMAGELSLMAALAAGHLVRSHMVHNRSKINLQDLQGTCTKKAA
Protocol: Crude soluble extract from rat liver microsomes was prepared as previously described (2). HMG-CoA reductase activity and incubation conditions were conducted as previously described (2,3).
The relative potencies, as HMG-CoA reductase inhibitors, of trifluoro-HMG-CoA, trifluoro-HMG and trifluoro-HMG anhydride were investigated.
The inhibition of HMG-CoA reductase activity was measured in crude soluble extract from rat liver microsomes. Crude soluble extract from rat liver microsomes was prepared as previously described (2). HMG-CoA reductase activity and incubation conditions were conducted as previously described (2,3). The HMG-CoA reductase activity of the crude soluble extract in the absence of inhibitor was considered as 100% and activities measured in the presence of inhibitors were compared to this norm.

[2] = biological target: T1, HMG-CoA reductase; assay: Inhibition of purified HMG-CoA reductase; format: biochemical; settings: 1.1 mM, purified enzyme
Protocol: Hmg-coA reductase was purified from rat liver microsomes as previously described (2). HMG-CoA reductase activity assay and incubation conditions were conducted as previously described (2,3).

[3] = biological target: T2, rat liver microsomal HMG-CoA reductase (Rattus norvegicus, UniProt P51639); assay: Kinetics of inhibition of rat liver microsomal HMG-CoA reductase; format: biochemical
T2 construct: rat liver microsomal HMG-CoA reductase; from tissue; host or cells: rat liver microsomes
T2 sequence (P51639 1-887): T1 sequence (P51639 1-887)
Protocol: Table III summarizes the results of an experiment in which the kinetics of inhibition of rat liver microsomal HMG-CoA reductase by trifluoro-HMG-CoA were measured.
The velocity of mevalonate formation was first measured in the absence of trifluoro-HMG-CoA, varying the concentration of the substrate [3-^14 C]HMG-CoA. Then the same experiment was conducted in the presence of trifluoro-HMG-CoA (600 μM). The data were analyzed by means of an Eadie-Hofstee plot.

[4] = Total body weights and liver weights of treated and control rats; format: in vivo, rat; settings: 0.2 mg per intraperitoneal injection, 6 days
Protocol: (§1) Control rats received an injection of the vehicle (KHCO3 buffer) used for trifluoro-HMG-CoAinjection. Liver microsomes were isolated from these animals, and HMG-CoA reductase activity was measured. The control group average HMG-CoA reductase specific activity was 1.25 nmol mevalonate formed/min/mg protein. […] This difference was statistically significant at the p=0.005 level.
(§2) Twelve male rats of identical age were used. Six rats served as the control group; these rats received an intraperitoneal injection of KHCO3 buffer (0.2 ml) once per day (3:00 pm) for six days, except on the final day when additional injections were given at 10:00 pm and 6:00 am the following day. The drug-treated group of six rats received intraperitoneal injections of trifluoro-HMG-CoA (0.2 mg) in KHCO3 buffer (0.2 ml) on the same schedule as described above for the control group. The data were further analyzed by the t statistic between the mean for each group.

[5] = biological target: T1, HMG-CoA reductase; assay: Liver microsomal HMG-CoA reductase activity in rats treated with trifluoro-HMG-CoA; format: in vivo; settings: 0.2 mg per intraperitoneal injection, 6 days
Protocol: as §1, §2

[6] = tested on: incorporation of [1-^14 C] acetate into cholesterol (nonsaponifiable extract) in intact rat liver cells; assay: Incorporation of [1-^14 C] acetate into cholesterol (nonsaponifiable extract) in intact liver cells; format: cell-based
Protocol: Duplicate samples contained 3.7 ml of hepatocyte suspension and 0.28 ml of saturated KHCO3 (pH […]) which contained varying final concentrations (0, 0.01, 0.10 or 1.0 mM) of trifluoro-HMG-CoA. Preincubation was conducted for 60 minutes. 10 μCi of [1-^14 C] sodium acetate, dissolved in Krebs Ringer bicarbonate buffer, was then added to each sample. Incubation was conducted for 120 minutes in a Dubnoff shaker. Saponification and extraction were conducted as previously described (4).

[7] = substrate: CC(O)(CC(=O)O)CC(=O)SCCNC(=O)CCNC(=O)[C@H](O)C(C)(C)COP(=O)(O)OP(=O)(O)OC[C@H]1O[C@@H](n2cnc3c(N)ncnc32)[C@H](O)[C@@H]1OP(=O)(O)O; assay: cells, lysate or membranes named; settings: other: absence of trifluoro-HMG-CoA; Eadie-Hofstee plot
[8] = 1 mM, crude soluble extract, relative potencies (Table VI), read-out: Inhibition of HMG-CoA reductase activity

inhibition at 1100 µM [2]: 73% | HMG-CoA reductase specific activity ([2]; 931.9 without inhibitor): 253.5 nmol mevalonate formed/min/mg | Ki ([3]; rat liver microsomes, substrate HMG-CoA, Eadie-Hofstee plot): 54 µM | Inhibition type ([3]; versus natural substrate HMG-CoA): competitive inhibitor | inhibition at 10 µM ([1]; 0.01 mM, crude soluble extract): 7% | HMG-CoA reductase activity ([1]; 0.01 mM, crude soluble extract): 1.85 nmol mevalonate formed/min/ml | inhibition at 100 µM ([1]; 0.10 mM, crude soluble extract): 35% | HMG-CoA reductase activity ([1]; 0.10 mM, crude soluble extract): 1.29 nmol mevalonate formed/min/ml | inhibition at 1000 µM ([1]; 1.00 mM, crude soluble extract (Table I), read-out: Inhibition): 78% | HMG-CoA reductase activity ([1]; 1.00 mM, crude soluble extract): 0.44 nmol mevalonate formed/min/ml | inhibition at 1000 µM [1, 8]: 78% | Inhibition (in words) ([1]; 0.1 and 1.0 mM, crude soluble extract): significant inhibition
Molecule: CC(C)(COP(=O)(O)OP(=O)(O)OC[C@H]1O[C@@H](n2cnc3c(N)ncnc32)[C@H](O)[C@@H]1OP(=O)(O)O)[C@@H](O)C(=O)NCCC(=O)NCCSC(=O)CC(O)(CC(=O)O)C(F)(F)F (stereo partly drawn) [Trifluoro-HMG-CoA, 3-Hydroxy-3-Trifluoromethylglutaryl-Coenzyme A]
Total body weights and liver weights, treated versus control group [4]: not significantly different | HMG-CoA reductase specific activity, average of treated rats ([5]; average of six rats, control average 1.25, p=0.005): 0.63 nmol mevalonate formed/min/mg protein | HMG-CoA reductase specific activity, individual treated rats ([5]; individual rat): 0.42 nmol mevalonate formed/min/mg protein and 0.59 nmol mevalonate formed/min/mg protein and 0.83 nmol mevalonate formed/min/mg protein and 0.58 nmol mevalonate formed/min/mg protein and 0.95 nmol mevalonate formed/min/mg protein and 0.40 nmol mevalonate formed/min/mg protein | Relative potency versus the free acid [3-hydroxy-3-trifluoromethylglutaric acid] ([1]; 1 mM, crude soluble extract): substantially more potent inhibitor than the free acid | inhibition at 10 µM ([6]; Rattus norvegicus, 0.01 mM, preincubation 60 minutes, incubation 120 minutes): 34% | inhibition at 100 µM ([6]; Rattus norvegicus, 0.10 mM, preincubation 60 minutes, incubation 120 minutes): 67% | inhibition at 1000 µM ([6]; Rattus norvegicus, 1.00 mM, preincubation 60 minutes, incubation 120 minutes): 88% | IC50 ([6]; Rattus norvegicus, calculated from the Table IV experiment, intact liver cells, read-out: Concentration for 50% inhibition of cholesterol formation): ~40 µM | Inhibition of cholesterol formation (in words) ([6]; concentrations as low as 0.01 mM): significant inhibition of cholesterol formation

inhibition at 1000 µM [1, 8]: 27%
Molecule: O=C1CC(O)(C(F)(F)F)CC(=O)O1 [Trifluoro-HMG-anhydride, 3-Hydroxy-3-Trifluoromethylglutaric Anhydride]

The remaining lines, values behind:

Molecule: O=C(O)CC(O)(CC(=O)O)C(F)(F)F [Trifluoro-HMG, 3-Hydroxy-3-Trifluoromethylglutaric Acid]
inhibition at 1000 µM [1, 8]: 11%

B1: rat liver microsomal HMG-CoA reductase (Rattus norvegicus) (protein)
chain: T1 sequence (P51639 1-887)
Km [7]: 34.5 µM
